Entries after “also recorded” stand apart in the source; their conditions may differ.
Tests used:
p300 = p300 (Homo sapiens, UniProt Q09472); test: In vitro acetylation assay (p300, histone 3 Lys 18 / Lys 27, western blot); type: biochemical; settings: compound in DMSO; for EC50: read-out: H3-Lys 18 EC50; for H3-Lys 27 EC50 / H3-Lys 27 IC50: Lys 27 of histone 3
Description: The aim of the in vitro acetylation assay is to measure the enzymatic activity of the various compounds towards p300. Results are provided in FIG. 3A to FIG. 7B for average values of lysine residue acetylation (continuous line) and their standard error range measured in the absence of compound and DMSO, wherein “n” represents the number of replicates.
First, the drug is prepared:
Second, dilute p300 in AM1 buffer to a concentration of 40 ng/μL (final concentration in the reaction 20 ng/μL). This is accomplished by diluting 1 μL of p300 (at 0.4 μg/μL) into […] of AM1 buffer.
Third, prepare the Master Mix. Prepare the Master Mix in low protein binding tubes (ThermoFisher Cat. No. 90410), 20 μL system.
Incubate reactions at 30° C. for 30 minutes.
Incubate reactions at 30° C. for 1 hour.
Fourth, perform the western blot assay. • Add 6.7 μL of Laemmli Sample Buffer 4× (Bio-Rad Laboratories Cat. No. 161-0737) for each reaction and boil samples at 95° C. for 5 min. • Charge 10 μL for each sample in 2 Tris Glycine 4-15% gels (Bio-Rad Laboratories Cat. No. 456-1086). Running Buffer: Tris-Glycine 1× (pour in the cell up to the writing “2 gels”). • Run at 90 V for 1 hour (until the gel front reaches the green line of cell). • Semi-dry transfer with Trans-Blot® Turbo™ Blotting System from Bio-Rad Laboratories (Trans-Blot® Turbo™ RTA midi PVDF transfer kit Cat. No1704275). • Activate PVDF membrane in methanol for 5 minutes and then wet in Trans-Blot® Turbo™ transfer buffer. • Wet stacks in transfer buffer. • Transfer at 23 V 1.3 A for 7 minutes. • Blocking buffer: 5% Non-Fat milk in TBST (tween 0.1%) 1 hour at room temperature. • Cut the membranes to get Ac-His 3 at 17 kDa and p300 at 300 kDa. • Incubate with primary antibodies overnight at 4° C. • The day after, make 3 washes in TBST (Tween 0.1%) of 10 minutes. • Incubate with secondary antibody at room temperature for 1 hour. • Make 3 washes in TBST (Tween 0.1%) of 5 minutes. • Incubate membranes with ECL (SuperSignal West Dura Extended Duration Substrate from ThermoFisher) for 5 minutes at room temperature. • Acquire the image with ChemiDoc Odyssey Fc 2 minutes.
To detect total H3 (loading control), strip the membranes with Restore™ Western Blot Stripping Buffer according to the manufacturer protocol.
Various compounds were tested for enzymatic activity with respect to Lys 18 and Lys 27 of histone 3. EC50 is indicated for activators and IC50 for inhibitors respectively.

[1] = Stability in human liver microsomes; type: in vitro ADME; settings: both sexes
Description: Compounds were tested for stability in human liver microsomes.
Experimental Procedure • Mixed-gender human liver microsomes (Lot #1210347) were purchased from XenoTech. The reaction mixture, minus NADPH, was prepared as described below. The test article was added into the reaction mixture at a final concentration of 1 μM. The control compound, testosterone, was run simultaneously with the test articles in a separate reaction. An aliquot of the reaction mixture (without cofactor) was equilibrated in a shaking water bath at 37° C. for 3 minutes. The reaction was initiated by the addition of the cofactor, and the mixture was incubated in a shaking water bath at 37° C. Aliquots (100 μL) were withdrawn at 0, 10, 20, 30, and 60 minutes. Test article and testosterone samples were immediately combined with 400 μL of ice-cold 50/50 acetonitrile (ACN)/H2O containing 0.1% formic acid and internal standard to terminate the reaction. […] Half-lives and clearance were calculated using GraphPad software, fitting to a single-phase exponential decay equation. […]
Note (a): When the calculated half-life is longer than the duration of the experiment, the half-life is expressed as being greater than the longest incubation time. Note (b): Intrinsic clearance (CLint) was calculated based on CLint=k/P, where k is the elimination constant and P is the protein concentration in the incubation.

[2] = system: mice administered with oTau; test: Contextual fear memory; type: in vivo; settings: YF2 plus oTau vs oTau, 24 hrs after the electric shock
From the text: A statistical significant difference is visible when comparing all groups during testing for contextual fear memory at 24 hrs after the electric shock (ANOVA among all groups: F(3, 53)=3.051 p=0.0364).

[3] = system: hippocampal slices from WT mice perfused with oTau; test: oTau-induced LTP deficit in hippocampal slices
From the text: against tau induced synaptic dysfunction. Oligomeric tau caused a defect of LTP. YF2 was applied to hippocampal slices either alone or concurrently with oligomeric tau. […] FIG. 8 is a graph illustrating that YF2 rescues oTau-induced LTP deficits. LTP was impaired in hippocampal slices from WT mice perfused with oTau. The concurrent treatment with YF2 and oTau reestablished normal LTP. There was no impairment in slices treated with YF2 or vehicle. The horizontal solid bar represents oTau perfusion while the horizontal dashed bar represents drug treatment. The three arrows correspond to the theta-burst stimulation. Two-Way ANOVA Vehicle vs. oTau: F(1, 21)=21.32, p=0.0001; Vehicle vs. YF2: F(1, 21)=0.200, p=0.6593; Vehicle vs. YF2+oTau: F(1, 22)=0.3455, p=0.563; YF2 vs. oTau: F(1, 22)=13.72, p=0.0012; YF2 vs. YF2+oTau: F(1, 23)=0.00043, p=0.984; YF2+oTau vs. oTau: F(1, 23)=31.52, p<0.0001.

[4] = system: mice administered with oTau; test: 2 day radial arm water maze (RAWM), spatial short-term memory; type: in vivo; settings: oTau 500 nM, YF2 5 mg/kg
Description: Oligomeric tau caused a defect of spatial memory and associative memory. YF2 was injected in mice either alone or concurrently with oligomeric tau. The compound rescued the oligomeric tau induced defect in memory. […] The performance in the RAWM was impaired in mice administered with oTau (500 nM). […] The performance was not impaired when mice were treated with only YF2 or vehicle.

[5] = Lys 18 of histone 3, EC50 for activators

Sequence of p300 (Q09472 whole entry, species assumed): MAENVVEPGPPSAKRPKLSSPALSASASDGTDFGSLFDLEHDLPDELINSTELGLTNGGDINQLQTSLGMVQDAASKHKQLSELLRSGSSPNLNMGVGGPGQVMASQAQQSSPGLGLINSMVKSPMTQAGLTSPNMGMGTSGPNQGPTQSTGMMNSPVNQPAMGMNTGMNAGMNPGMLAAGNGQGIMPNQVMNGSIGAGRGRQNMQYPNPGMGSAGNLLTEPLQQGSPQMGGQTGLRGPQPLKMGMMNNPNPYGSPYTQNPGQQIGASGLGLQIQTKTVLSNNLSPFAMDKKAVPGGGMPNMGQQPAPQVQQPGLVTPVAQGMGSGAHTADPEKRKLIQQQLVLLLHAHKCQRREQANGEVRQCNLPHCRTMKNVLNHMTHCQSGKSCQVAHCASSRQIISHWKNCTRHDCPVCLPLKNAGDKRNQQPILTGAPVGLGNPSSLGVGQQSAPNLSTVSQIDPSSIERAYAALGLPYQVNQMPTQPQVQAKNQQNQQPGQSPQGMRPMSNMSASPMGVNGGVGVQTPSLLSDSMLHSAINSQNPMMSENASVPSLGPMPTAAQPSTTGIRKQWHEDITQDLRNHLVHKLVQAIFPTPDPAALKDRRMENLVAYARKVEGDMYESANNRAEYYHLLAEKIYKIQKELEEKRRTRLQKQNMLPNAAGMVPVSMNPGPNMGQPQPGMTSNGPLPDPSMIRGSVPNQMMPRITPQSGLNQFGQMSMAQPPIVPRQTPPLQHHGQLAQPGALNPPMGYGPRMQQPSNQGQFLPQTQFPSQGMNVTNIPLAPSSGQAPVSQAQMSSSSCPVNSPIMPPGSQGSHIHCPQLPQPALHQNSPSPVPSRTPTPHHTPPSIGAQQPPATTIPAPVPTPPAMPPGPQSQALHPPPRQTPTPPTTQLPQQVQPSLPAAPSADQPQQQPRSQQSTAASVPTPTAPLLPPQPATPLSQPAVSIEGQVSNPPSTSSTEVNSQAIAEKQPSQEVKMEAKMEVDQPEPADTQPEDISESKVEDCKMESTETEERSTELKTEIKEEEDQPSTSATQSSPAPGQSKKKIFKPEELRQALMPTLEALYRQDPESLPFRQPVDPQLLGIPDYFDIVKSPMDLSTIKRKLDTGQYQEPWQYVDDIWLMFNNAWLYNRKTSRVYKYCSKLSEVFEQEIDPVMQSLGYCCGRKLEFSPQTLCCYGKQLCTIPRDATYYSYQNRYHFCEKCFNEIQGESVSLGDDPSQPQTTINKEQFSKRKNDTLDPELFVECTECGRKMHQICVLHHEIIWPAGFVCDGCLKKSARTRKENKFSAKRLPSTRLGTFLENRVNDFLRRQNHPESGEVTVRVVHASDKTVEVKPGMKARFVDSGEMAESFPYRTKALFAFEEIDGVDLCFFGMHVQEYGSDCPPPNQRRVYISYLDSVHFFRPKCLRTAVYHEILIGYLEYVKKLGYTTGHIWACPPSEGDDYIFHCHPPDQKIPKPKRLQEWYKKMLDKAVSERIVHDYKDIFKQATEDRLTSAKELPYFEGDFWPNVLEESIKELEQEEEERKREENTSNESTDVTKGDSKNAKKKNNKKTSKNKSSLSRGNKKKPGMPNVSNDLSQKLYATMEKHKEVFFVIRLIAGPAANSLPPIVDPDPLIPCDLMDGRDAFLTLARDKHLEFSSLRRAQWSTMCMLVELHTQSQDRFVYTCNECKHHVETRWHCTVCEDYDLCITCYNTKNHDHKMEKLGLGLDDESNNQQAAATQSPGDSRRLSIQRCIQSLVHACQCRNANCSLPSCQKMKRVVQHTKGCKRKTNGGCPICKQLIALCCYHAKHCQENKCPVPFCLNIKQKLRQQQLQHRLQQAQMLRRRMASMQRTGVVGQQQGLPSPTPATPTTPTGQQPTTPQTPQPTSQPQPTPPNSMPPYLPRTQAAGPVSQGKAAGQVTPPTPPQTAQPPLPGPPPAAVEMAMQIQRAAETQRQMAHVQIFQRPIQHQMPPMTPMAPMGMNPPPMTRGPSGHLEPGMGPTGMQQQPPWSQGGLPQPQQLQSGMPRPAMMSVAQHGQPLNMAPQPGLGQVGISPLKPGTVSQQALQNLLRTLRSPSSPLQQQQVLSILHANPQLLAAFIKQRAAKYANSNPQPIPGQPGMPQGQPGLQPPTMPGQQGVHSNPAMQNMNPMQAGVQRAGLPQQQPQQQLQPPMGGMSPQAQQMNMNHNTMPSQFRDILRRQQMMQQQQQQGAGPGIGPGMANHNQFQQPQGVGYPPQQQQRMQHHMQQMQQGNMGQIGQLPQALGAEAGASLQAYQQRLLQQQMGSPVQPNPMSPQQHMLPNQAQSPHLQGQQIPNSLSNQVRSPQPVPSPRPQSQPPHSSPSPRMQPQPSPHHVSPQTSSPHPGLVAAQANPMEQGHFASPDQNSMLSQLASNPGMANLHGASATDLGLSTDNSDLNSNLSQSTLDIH

Compound: CCOc1cccc(OCCN2CCOCC2)c1C(C)Nc1ccc(O)c(C(F)(F)F)c1 (centres unmarked) [JF2]
- EC50 (p300; [5]): 138 nM
- H3-Lys 27 EC50 (p300; EC50 for activators): NO ACTIVITY
- H3-Lys 27 IC50 (p300; IC50 for inhibitors): NO ACTIVITY

Compound: C[C@]12CC[C@H]3[C@@H](CCC4=CC(=O)CC[C@@]43C)[C@@H]1CC[C@@H]2O [Testosterone, testosterone]
- half-life at 1 μM ([1]; pH 7.4, 1 μM, single-phase exponential decay fit): 40.6 min
- microsomal CLint at 1 μM ([1]; pH 7.4, CLint=k/P): 34.1 µL/min/mg

Compound: CCOc1cccc(OCCN(C)C)c1C(=O)Nc1ccc(Cl)c(C(F)(F)F)c1 [YF2]
- contextual fear memory (freezing), oTau-induced deficit [2]: rescues oTau-induced deficit in contextual fear memory; also recorded: rescues oTau-induced defects in contextual fear memory
- LTP with compound alone ([3]; hippocampal slices treated with YF2 alone): no impairment
- effect on oligomeric tau induced defect in long-term potentiation ([3]; hippocampal slices, concurrent treatment with YF2 and oTau): rescued the oligomeric tau induced defect in long-term potentiation; also recorded: rescues oligomeric-Tau (oTau)-induced LTP deficits
- RAWM performance, oTau-induced deficit [4]: rescued the deficit; also recorded: rescues oTau-induced defects

Compound: FC(F)(F)c1cc(N2COc3ccccc3C2)ccc1Cl [JF17]
- EC50 (p300; [5]): 103 nM

Compound: CN(C)CCOc1cccc2c1C(=O)N(c1ccc(Cl)c(C(F)(F)F)c1)C2=O [JF19]
- H3-Lys 18 EC50 (p300; [5]): NO ACTIVITY
- H3-Lys 18 IC50 (p300; Lys 18 of histone 3, IC50 for inhibitors): NO ACTIVITY
- H3-Lys 27 EC50 (p300; EC50 for activators): NO ACTIVITY
- H3-Lys 27 IC50 (p300; IC50 for inhibitors): NO ACTIVITY
